Assay results: patent US20220257595A1, “MACITENTAN FOR USE IN TREATING PORTOPULMONARY HYPERTENSION” (ACTELION PHARMACEUTICALS LTD, priority 2019, published 2022)

Test system: patients with PoPH
Assay: PORTICO: WHO functional class
Assay type: in vivo, human
Protocol: (iii) WHO functional class: WHO FC was evaluated at Screening, Baseline (Visit 2/Randomization), and then every visit until EOT-DB or EOT-OL, whichever came last.
Handling of missing data: For change from baseline to Weeks 4, 8 and 12 in 6MWD and WHO FC, the last available value (including baseline) was carried forward unless the patient died before, or on Day 42, 70, 98 (the upper limit treatment days of Weeks 4, 8 and 12 windows, respectively), in which case the following rules considering worst case were used to replace all the missing values from the week after death up to Week 12: • For 6MWD, worst fixed value was set to 0, • For WHO FC, worst fixed value was set to class IV, • For change from baseline to Week 12 in NT-proBNP, the same imputation rule as for PVR was applied as described herein.
Statistical analysis: The change from baseline to Week 12 in mRAP, mPAP, cardiac index, TPR and SVO2 were analyzed on the FAS (with imputation) using an ANCOVA with factors for treatment group, background PAH-specific therapy at baseline (Yes/No as per IXRS, randomization stratification factor), region (Europe/North America/Latin America as per IXRS, randomization stratification factor) and a covariate for baseline corresponding variable. Other RHC variables are listed only. WHO FC is summarized on the FAS (with imputation) by time point and treatment group using frequency tables. Changes from baseline in WHO FC were dichotomized as worsening (i.e., change >0) versus no change or improvement (i.e., change ≤0). Worsening was analyzed using a logistic regression model (exact) with covariates for treatment group, background PAH-specific therapy at baseline (Yes/No as per IXRS, randomization stratification factor) and region (Europe/North America/Latin America as per IXRS, randomization stratification factor). 6MWD is summarized on the FAS (with imputation) by time point and treatment group using descriptive statistics. Change from baseline to each time point is summarized similarly. Change from baseline in 6MWD (up to Week 12) was analyzed using a mixed-effect model repeated measure (MMRM) with factors for treatment group, time point, treatment by time interaction, background PAH-specific therapy at baseline (Yes/No as per IXRS, randomization stratification factor) and region (Europe/North America/Latin America as per IXRS, randomization stratification factor), and covariates for baseline 6MWD and WHO FC. An unstructured covariance matrix was used to account for the correlation between repeated measurements from the same patient. NT-proBNP is summarized on the FAS (with imputation) by time point and treatment group using descriptive statistics as well as geometric means and CVs. The ratio of Week 12 to baseline NT-proBNP is summarized similarly. The ratio versus baseline in NT-proBNP was log-transformed and analyzed using an ANCOVA with covariates for treatment group, background PAH-specific therapy at baseline (Yes/No as per IXRS, randomization stratification factor), region (Europe/North America/Latin America as per IXRS, randomization stratification factor) and baseline log NT-proBNP.
Macitentan treatment period: Changes from macitentan baseline to each time point in WHO FC, 6MWD, NT-pro BNP and Borg dyspnea index (related to the macitentan treatment period) are summarized for the MTS using descriptive statistics.

For `CCCNS(=O)(=O)Nc1ncnc(OCCOc2ncc(Br)cn2)c1-c1ccc(Br)cc1` [macitentan, N-[5-(4-Bromophenyl)-6-[2-[(5-bromo-2-pyrimidinyl)oxy]ethoxy]-4-pyrimidinyl]-N′-propylsulfamide], the “WHO FC Class I at Week 12, total” value (FAS with imputation, N=43) was 3 (7.0) n (%), the “WHO FC Class II at Week 12, total” value (FAS with imputation, N=43) was 27 (62.8) n (%) and the “WHO FC Class III at Week 12, total” value (FAS with imputation, N=43) was 13 (30.2) n (%). The “WHO FC Class IV at Week 12, total” value (FAS with imputation, N=43) was 0 n (%), the “WHO FC Improved, baseline to Week 12” value (FAS with imputation, N=43) was 9 (20.9) n (%) and the “WHO FC Not Worsened, baseline to Week 12” value (FAS with imputation, N=43) was 37 (86.0) n (%). For the same molecule, the “WHO FC Unchanged, baseline to Week 12” value (FAS with imputation, N=43) was 28 (65.1) n (%), the “WHO FC Worsened, baseline to Week 12” value (FAS with imputation, N=43) was 6 (14.0) n (%) and the “WHO FC shift: baseline Class I to Week 12 Class I” value (FAS with imputation, N=43) was 1 (2.3) n (%). For the same molecule, the “WHO FC shift: baseline Class I to Week 12 Class II” value (FAS with imputation, N=43) was 0 n (%), the “WHO FC shift: baseline Class I to Week 12 Class III” value (FAS with imputation, N=43) was 0 n (%) and the “WHO FC shift: baseline Class I to Week 12 Class IV” value (FAS with imputation, N=43) was 0 n (%). For the same molecule, the “WHO FC shift: baseline Class II to Week 12 Class I” value (FAS with imputation, N=43) was 1 (2.3) n (%), the “WHO FC shift: baseline Class II to Week 12 Class II” value (FAS with imputation, N=43) was 20 (46.5) n (%) and the “WHO FC shift: baseline Class II to Week 12 Class III” value (FAS with imputation, N=43) was 6 (14.0) n (%). The “WHO FC shift: baseline Class II to Week 12 Class IV” value (FAS with imputation, N=43) was 0 n (%), the “WHO FC shift: baseline Class III to Week 12 Class I” value (FAS with imputation, N=43) was 1 (2.3) n (%) and the “WHO FC shift: baseline Class III to Week 12 Class II” value (FAS with imputation, N=43) was 7 (16.3) n (%). The “WHO FC shift: baseline Class III to Week 12 Class III” value (FAS with imputation, N=43) was 7 (16.3) n (%), the “WHO FC shift: baseline Class III to Week 12 Class IV” value (FAS with imputation, N=43) was 0 n (%) and the “Patients with no change in WHO FC at Week 12” value (FAS, macitentan group) was 65.1%. The “Patients with worsening in WHO FC at Week 12” value (FAS, macitentan group, 6 patients (4 imputed)) was 14.0%, the “Patients with improvement in WHO FC at Week 12” value (FAS, macitentan group, 9 patients) was 20.9% and the “Patients with worsening in WHO FC at Week 24” value (MTS without imputation, macitentan in both periods, 2/34) was 5.9%. For the same molecule, the “Patients with no change in WHO FC at Week 24” value (MTS without imputation, macitentan in both periods, 21/34) was 61.8%, the “Patients with worsening in WHO FC at Week 12 after macitentan initiation in OL period” value (MTS without imputation, vs macitentan baseline, 3/35) was 8.6% and the “Patients with no change in WHO FC at Week 12 after macitentan initiation in OL period” value (MTS without imputation, vs macitentan baseline, 24/35) was 68.6%.
